Source: patent publication US20240425867A1, “NUCLEIC ACID-BASED ASSEMBLY AND USES THEREOF” (Rheinische Friedrich-Wilhelms-Universität Bonn, priority 2016, published 2024)

Columns and labels:
[1] = Serum stability in PBS-buffered human blood serum (PAGE of 32P-labeled aptamer); type: in vitro ADME; details: 10% PBS-buffered HBS, 37° C., 0 to 72 h
Procedure: Serum stabilities of trCLN3, its two point mutant non-binding variant trCLN3.mut and their corresponding lipid-functionalized derivatives trCLN3-L4 and trCLN3.mut-L4 were investigated in fetal calf serum (FCS) and human blood serum. For this purpose, the aptamer motifs were labeled at their 5′-end with ^32P to form radiolabeled oligonucleotides. The degradation tests of all the aptamer motifs were performed for 60-72 h at 37°° C. 6 pmol (12 μl of 0.5 μM) of the radio-labeled aptamer (5′-end-labeled with γ-^32P) was incubated in a volume of 300 μl freshly thawed PBS-buffered FCS or human blood serum (270 μl serum+30 μl 10×PBS). For each measurement, 10 μl of the samples were removed, mixed with 90 μl of gel loading buffer (80% formamide+5 mM EDTA+0.01% SDS) and subsequently stored at −20° C. Aliquots of samples were taken after indicated time intervals of 0, 0.3, 1.5, 3, 6, 24, 48, 60 and 72h respectively. The serum stability of the aptamer in FCS or in HBS at different time intervals were analyzed on a denaturing PAGE by loading 10 μl of each sample onto a 10% TAE-Urea gel and running the gels for 90 minutes at 350 V. Gels were wrapped in clingfilm and exposed to a phosphorimager screen in a closed cassette over a period of 12 h and finally the residual intact aptamer bands were analyzed by scanning the screen in a phosphorimage-scanner (FujiFilm FLA 3000). Intensities of the residual intact aptamer bands were calculated applying AIDA image analyzer software program. Serums half-lives of the selected aptamers were determined by using a half-life curve-fitting data analysis program (GraphPad Prism).

[2] = Atomic force microscopy (AFM) size of nanoconstructs; type: physicochemical; details: Gaussian fit of at least 50 nanoconstructs
Procedure: All AFM images of the trCLN3-L4 and HyApNc aggregates were taken by using a Nanowizard III AFM (JPK instruments, Berlin) in tapping mode. ACTA probes with silicon tips were used for imaging in dry mode in air. A volume of 3 μL (5 mM) of a solution of magnesium acetate (MgAc2) in water was deposited on a freshly cleaved mica surface layer and allowed to incubate for 3 minutes and afterwards the surface was rinsed with 2×10 μL of milli-Q water and dried under air pressure. For imaging a volume of 3 μL of the trCLN3-L4/HyApNc solutions in ultra pure water were spotted on the pre-treated mica surface and allowed to incubate for 1 min. After 1 min incubation on the mica surface, the excess sample solution was gently shaken off and the mica surface was blown dry with air pressure and mounted to the AFM microscope for immediate imaging. […]
In a first step. we synthesized the lipid-modified phosphoramidite 1 with a C12-lipid chain incorporated at the 5-position of the uridine base (FIGS. 2A-B). […] We evaluated the CMC of the trCLN3-L4nanoconstructs using Forster resonance energy transfer (FRET; Example 3; FIGS. 6A-C; Table 2) and fluorescence studies with pyrene-loaded trCLN3-L4 nanoconstructs (FIGS. 7A-B; Table 3). […] The trCLN3-L4 3 nanoconstructs have an average diameter of 21.2±1.5 nm (FIG. 8C, upper panel), consistent with the size of 25 nm measured by TEM.

[3] = Critical micelle concentration from pyrene fluorescence; type: physicochemical; details: pyrene 100 μM
Procedure: Critical micelle concentration (CMC) value of the trCLN3-L4 motif was further confirmed by internalizing pyrene into the hydrophobic-lipid core of the micellar aggregate followed by measuring the fluorescence of pyrene-loaded trCLN3-L4 nanoconstructs at different concentrations. For this experiment a fixed amount of pyrene in acetone was transferred to an empty tube and acetone was allowed to evaporate in the dark at 45° C. for 30 min using an Eppendorf concentrator. trCLN3-L4 solutions in the concentration range between 0.0005-0.5 mg/ml were then added to yield a final pyrene concentration fixed at 100 μM for all reactions (Table 3). The solutions were incubated at 90° C. for 10 minutes in the dark and slowly cooled down to room temperature overnight at a rate of 1° C./10 min in order to internalize pyrene into the hydrophobic lipid core. The pyrene-loaded trCLN3-L4 nanoconstructs were transferred into a 384-multi well plate and the fluorescence emission spectrum of each well was recorded at room temperature by using an excitation wave length of 339 nm in an EnSpire® Multimode Plate Reader (PerkinElmer).
In close proximity, two pyrene molecules form an excimer that emits fluorescence at a longer wavelength compared to the monomer emission. The formed excimer is a dimeric complex where one molecule exists in an excited state and the other molecule in a ground state. Monomer emission of pyrene occurs within a range of 360-400 nm whereas the excimer emission is obtained within the wavelength limit of 465-500 nm. The critical micelle concentration was determined by the distinguishable pyrene excimer fluorescence of the corresponding DNA concentration. See G. Uddin G et al., Am. J. Biochem. Mol. Biol. 2013, 3, 175-181; which reference is incorporated herein in its entirety.

[4] = TEM size of trCLN3-L4 nanoconstructs; type: physicochemical; details: negative stain electron microscopy
Procedure: The size and structure of the trCLN3-L4 nanoconstructs were analyzed by negative stain electron microscopy. Samples were prepared using negative staining. In brief, carbon coated grids (Quantifoil Micro Tools GmbH, Jena, Germany, 200 mesh) were glow discharged to render the surface hydrophilic prior to applying samples. 10 μL of an aqueous solution of trCLN3-L4 were applied to the grid. Afterwards excess solution was carefully blotted off using filter paper followed by 3 times washing with ddH2O. In the final step, grids were stained with negative staining reagent by placing them (plastic side down) on a 10 μL drop of freshly prepared 2% […] uranyl formiate aqueous staining solution. TEM micrographs were recorded using a JEOL JEM 2200 FS electron microscope (JEOL, Japan) operated at 200 kV. The size of the micelles measured on the TEM images could typically be observed in a range between 20 and 25 nm.

## trCLN3-L4: trCLN3 aptamer with four C12-lipid-modified dU residues at the 5′-end; self-assembles into micellar nanoconstructs (TGGATGGTAGCTCGGTCGGGGTGGGTGGGTTGGCAAGTCT; four 5' C12-lipid-modified dU residues, chemistry not fully specified)
[1]
  serum half-life (t1/2): no significant degradation even up to 72 h
[2]
  average diameter: 21.2±1.5 nm
[3]; trCLN3-L4 0.0005 mg/mL (0.035 μM)
  I475/I373: 0.20
[3]; trCLN3-L4 0.001 mg/mL (0.07 μM)
  I475/I373: 0.23
[3]; trCLN3-L4 0.0025 mg/mL (0.175 μM)
  I475/I373: 0.72
[3]; trCLN3-L4 0.005 mg/mL (0.35 μM)
  I475/I373: 1.98
[3]; trCLN3-L4 0.01 mg/mL (0.7 μM)
  I475/I373: 1.57
[3]; trCLN3-L4 0.025 mg/mL (1.75 μM)
  I475/I373: 2.49
[3]; trCLN3-L4 0.05 mg/mL (3.5 μM)
  I475/I373: 4.69
[3]; trCLN3-L4 0.1 mg/mL (7.0 μM)
  I475/I373: 5.13
[3]; trCLN3-L4 0.25 mg/mL (17.4 μM)
  I475/I373: 6.90
[3]; trCLN3-L4 0.5 mg/mL (35 μM)
  I475/I373: 7.83
[4]
  size measured by TEM: 25 nm
